Our source for the mass density and refractive index values is the NIST ThermoML archive (doi:10.1016/j.fluid.2013.10.033).

Data set [1] is described as follows: xn = mol fraction of the nth substance listed. To be noted: 298.15 K, 101 kPa, Liquid, Vibrating tube method.
A short description of data set [2]: refractive index (Na D-line) (dimensionless). The settings on record: 298.15 K; 101.33 kPa; Liquid; Standard Abbe refractometry.
The conditions of data set [3]: 298.15 K; 101.33 kPa; Liquid; Vibrating tube method.

Each structure is given as a SMILES string. ± gives the expanded uncertainty stated by the source.

By mass density is commonly meant mass per unit of volume. Take `CCOS(=O)(=O)[O-].CC[n+]1ccccc1` [1-ethylpyridinium ethyl sulfate] + C1CCCCCCC1: the mass density in data set [1] (x2 = 0.009) is 1249.15 ± 1.2 kg/m3.
As to `CCOS(=O)(=O)[O-].CC[n+]1ccccc1` [1-ethylpyridinium ethyl sulfate] + C1=CCCCC1, the mass density in data set [1] (x2 = 0.041) is given as 1243.4 ± 1.8 kg/m3.
As usually defined, the refractive index is a measure of how strongly the sample bends light. With `C1=CCCCC1` [cyclohexene], in data set [2], the refractive index is 1.44378 ± 0.0007. The mass density in data set [3] stood at 805.69 ± 0.24 kg/m3.
As for `C1CCCCCCC1` [cyclooctane], in data set [2], the refractive index is recorded as 1.45598 ± 0.00068. The mass density in data set [3] worked out at 831.47 ± 0.12 kg/m3.
For the compound `CCOS(=O)(=O)[O-].CC[n+]1ccccc1` [1-ethylpyridinium ethyl sulfate] + CC1CCCCC1, the mass density in data set [1] (x2 = 0.013) is 1248.79 ± 1.7 kg/m3.
For the compound `CCOS(=O)(=O)[O-].CC[n+]1ccccc1` [1-ethylpyridinium ethyl sulfate], the refractive index in data set [2] is reported as 1.50525 ± 0.0007. The mass density in data set [3] was 1252 ± 0.4 kg/m3.
The like results for `c1ccccc1` [benzene] were, in that order, 1.49774 ± 0.00068 and 873.57 ± 0.11 kg/m3.
Consider `CCOS(=O)(=O)[O-].CC[n+]1ccccc1` [1-ethylpyridinium ethyl sulfate] + c1ccccc1, for which the mass density in data set [1] (x2 = 0.406) stood at 1171.69 ± 1.6 kg/m3.
Take `C1CCCCC1` [cyclohexane]: the refractive index in data set [2] stood at 1.4236 ± 0.00068. Also, the mass density in data set [3] worked out at 773.8 ± 0.13 kg/m3.
Take `CC1CCCCC1` [methylcyclohexane]: the refractive index in data set [2] came to 1.42062 ± 0.0007. Moreover, in data set [3], the mass density was 765.02 ± 0.24 kg/m3.
Take `CCOS(=O)(=O)[O-].CC[n+]1ccccc1` [1-ethylpyridinium ethyl sulfate] + C1CCCCC1: in data set [1] (x2 = 0.017), the mass density is reported as 1247.74 ± 1.8 kg/m3.
